The structures appear in SMILES notation.

For assay [1], the system named is RPMI-8226 target cells. The assay can be described thus: Acute co-culture cytokine secretion of anti-BCMA CAR T cells with RPMI-8226. In kind it is cell-based, human. The following applies: RPMI-8226, E:T 1:1, 24 hours, 0.01-10,000 nM, FIG. 2A. The method, then: Anti-tumor effects of anti-BCMA CAR T cells, alone and in combination with cell immunomodulatory compounds Compound A (iberdomide, (S)-3-[4-(4-morpholin-4-ylmethyl-benzyloxy)-1-oxo-1,3-dihydro-isoindol-2-yl]-piperidine-2,6-dione) or Compound B ((S)-4-(4-(4-(((2-(2,6-dioxopiperidin-3-yl)-1-oxoisoindolin-4-yl)oxy)methyl)benzyl)piperazin-1-yl)-3-fluorobenzonitrile), were assessed in two different BCMA-expressing target multiple myeloma cell lines RPMI-8226 or OPM-2. Anti-BCMA CAR+ T cells were generated as described in Example 1.
The anti-BCMA CAR-expressing T cells were incubated with target cells, RPMI 8226 (BCMA^med human multiple myeloma cell line) or OPM2 cells (BCMA^med human multiple myeloma cell line) target cells, at an E:T ratio of 1:1. The co-culture incubation with target cells was carried out in the presence of Compound A (0.01 nM, 0.1 nM, 1 nM, 10 nM, 100 nM, 1000 nM, or 10,000 nM) or Compound B (0.01 nM, 0.1 nM, 1 nM, 10 nM, 100 nM, 1000 nM, or 10,000 nM).

For assay [2], the system named is RPMI-8226 target cells. The assay can be described thus: Rescue: rechallenge of chronically stimulated anti-BCMA CAR T cells with RPMI-8226 in the presence of compound. In kind it is cell-based, human. Here is the method: Anti-BCMA CAR-expressing T cells, produced as described in Example 1, were stimulated with 50 μg BCMA conjugated beads (diameter about 4.5 μm from a 50 μg/ml BCMA-conjugated bead composition) substantially as described in Example 3 to induce chronic stimulation (to produce hypofunctional, exhausted T cells). After the chronic stimulation, the CAR-T cells were rechallenged with RPMI-8226 target cells (labeled with NucLightRed as described in Example 2) at a 1:1 (effector:target) ratio in the presence of (rescued) with Compound A (iberdomide, (S)-3-[4-(4-morpholin-4-ylmethyl-benzyloxy)-1-oxo-1,3-dihydro-isoindol-2-yl]-piperidine-2,6-dione) (1 nM or 10 nM), Compound B ((S)-4-(4-(4-(((2-(2,6-dioxopiperidin-3-yl)-1-oxoisoindolin-4-yl)oxy)methyl)benzyl)piperazin-1-yl)-3-fluorobenzonitrile) (0.1 nM or 1 nM), or DMSO vehicle control.
Killing activity and cytokine production were assessed as described in Example 3.
Studies were undertaken to determine whether Compound A (iberdomide, (S)-3-[4-(4-morpholin-4-ylmethyl-benzyloxy)-1-oxo-1,3-dihydro-isoindol-2-yl]-piperidine-2,6-dione) rescued anti-BCMA CAR T cell function following chronic stimulation. To directly stimulate via CAR engagement to induce chronic stimulation of cells, anti-BCMA CAR T cells were stimulated with BCMA conjugated beads (diameter about 4.5 μm from a 50 μg/ml BCMA-conjugated bead composition, generated as described in Example 9) at a ratio of T cells to beads of 1:1. The cells were then incubated at 37° C., 5% CO2 for 7 days.
Cultures were incubated at 37° C., 5% CO2, and images were taken every 2 hours over 5-7 days with an Essen IncuCyte Zoom live-cell analysis system to track NucLightRed-positive target cells.

Assay [3] concerns Irradiated DF-15R target cells. The assay can be described thus: Serial stimulation assay of anti-BCMA CAR T cells. It is filed as cell-based, human. Here is the method:
A serial stimulation assay or serial re-challenge assay was used to assess activity of anti-BCMA CAR T cells following repeated rounds of antigen stimulation, in the presence and absence of Compound A (iberdomide, (S)-3-[4-(4-morpholin-4-ylmethyl-benzyloxy)-1-oxo-1,3-dihydro-isoindol-2-yl]-piperidine-2,6-dione).
Anti-BCMA CAR+ T cells (generated as described in Example 1) were plated in triplicate at 1×10^5 cells/well on 96-well plates. Irradiated DF-15R target cells, which is a multiple myeloma (MM) cell line generated to be resistant to effect of cell immunomodulatory compounds (Lopez-Girona et al. Leukemia, 2012; 26:2326-2335), were added at an effector-to-target (E:T) ratio of 1:2 in the presence or absence of various concentrations (10 nM) of Iberdomide.
Every 3-4 days (start of each new round), CAR T cells were counted. Cells then were harvested and re-plated at the initial seeding density with fresh media, newly-added Iberdomide at the same concentration, where applicable, and newly-thawed, irradiated target cells. Five rounds of stimulation were carried out during a 19 day culture period. At day 5 and day 9 (24 hours after a re-plating (reset) cytokine production in the supernatant was assessed. Results were assessed in two different donors.

The target in another assay is CRBN (Homo sapiens, UniProt Q96SW2). The settings on record: compared with lenalidomide and pomalidomide; cited from earlier work.
CRBN, sequence (Q96SW2 whole entry, species assumed): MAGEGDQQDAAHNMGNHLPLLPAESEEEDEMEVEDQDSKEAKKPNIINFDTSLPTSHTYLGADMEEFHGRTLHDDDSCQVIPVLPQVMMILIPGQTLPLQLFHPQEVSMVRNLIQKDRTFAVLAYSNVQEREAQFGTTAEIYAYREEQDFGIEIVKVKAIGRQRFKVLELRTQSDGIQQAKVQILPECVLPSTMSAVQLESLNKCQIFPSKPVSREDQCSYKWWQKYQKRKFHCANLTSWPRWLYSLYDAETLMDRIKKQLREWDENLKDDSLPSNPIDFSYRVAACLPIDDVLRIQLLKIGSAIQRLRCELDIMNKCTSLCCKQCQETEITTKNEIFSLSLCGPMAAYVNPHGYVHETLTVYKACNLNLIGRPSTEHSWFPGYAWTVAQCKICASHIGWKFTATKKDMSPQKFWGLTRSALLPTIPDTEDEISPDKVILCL
The mark [4] stands for this setting: 24 hours after first reset (day 5) or second reset (day 9), FIG. 5B.

For the compound `O=C1CC[C@H](N2Cc3c(OCc4ccc(CN5CCOCC5)cc4)cccc3C2=O)C(=O)N1` [Compound A, (S)-3-[4-(4-morpholin-4-ylmethyl-benzyloxy)-1-oxo-1,3-dihydro-isoindol-2-yl]-piperidine-2,6-dione], in the assay on RPMI-8226 target cells [1], the “CAR T cytokine production (IL-2, TNFα, IFN-gamma in supernatant)” value is recorded as “enhanced”. The “rescue of chronically activated CAR T cells” value in the assay with RPMI-8226 target cells [2] (Example 4: Compound A 1 or 10 nM, Compound B 0.1 or 1 nM during re-challenge) was “able to rescue chronically activated CAR T cells to improve functionality”. Moreover, the “cytolytic activity, compound present during re-challenge” value in the assay on RPMI-8226 target cells [2] (Example 8: E:T 0.3:1, Compound A 1 nm or 10 nM, versus no compound, FIG. 10A) is listed as “improvement in cytolytic activity”. In addition, the “production of IFN-gamma” value in the assay with RPMI-8226 target cells [2] (Example 8: supernatant at 24 hours, FIG. 10B) is “increased production”. Moreover, the “production of IL-2” value in the assay with RPMI-8226 target cells [2] (Example 8: supernatant at 24 hours, FIG. 10C) is listed as “increased production”. The “production of TNF-alpha” value in the assay with RPMI-8226 target cells [2] (Example 8: supernatant at 24 hours, FIG. 10D) is “increased production”. The “anti-BCMA CAR cell counts (number of population doublings)” value in assay [3] (10 nM, E:T 1:2, five rounds over 19 days, two donors, FIG. 5A) is “enhanced”. Moreover, in assay [3] (setting [4]), the IL-2 production entry is “increased” and the TNF-alpha production result is listed as “increased”. Moreover, the “binding to CRBN” value on CRBN is “binds more potently”.

The record behind these values is patent publication US20230165872A1, “COMBINATION OF BCMA-DIRECTED T CELL THERAPY AND AN IMMUNOMODULATORY COMPOUND” (Juno Therapeutics, Inc., priority 2020, published 2023).
